# Data published in ChEMBL document CHEMBL2321810, “QSAR investigation of NaV1.7 active compounds using the SVM/Signature approach and the Bioclipse Modeling platform” (Bioorg Med Chem Lett, 2013).
# Biological target: Sodium channel protein type 9 subunit alpha (Homo sapiens, UniProt Q15858)
# Assay: cell-based
# Sodium channel protein type 9 subunit alpha, sequence (Q15858 whole entry): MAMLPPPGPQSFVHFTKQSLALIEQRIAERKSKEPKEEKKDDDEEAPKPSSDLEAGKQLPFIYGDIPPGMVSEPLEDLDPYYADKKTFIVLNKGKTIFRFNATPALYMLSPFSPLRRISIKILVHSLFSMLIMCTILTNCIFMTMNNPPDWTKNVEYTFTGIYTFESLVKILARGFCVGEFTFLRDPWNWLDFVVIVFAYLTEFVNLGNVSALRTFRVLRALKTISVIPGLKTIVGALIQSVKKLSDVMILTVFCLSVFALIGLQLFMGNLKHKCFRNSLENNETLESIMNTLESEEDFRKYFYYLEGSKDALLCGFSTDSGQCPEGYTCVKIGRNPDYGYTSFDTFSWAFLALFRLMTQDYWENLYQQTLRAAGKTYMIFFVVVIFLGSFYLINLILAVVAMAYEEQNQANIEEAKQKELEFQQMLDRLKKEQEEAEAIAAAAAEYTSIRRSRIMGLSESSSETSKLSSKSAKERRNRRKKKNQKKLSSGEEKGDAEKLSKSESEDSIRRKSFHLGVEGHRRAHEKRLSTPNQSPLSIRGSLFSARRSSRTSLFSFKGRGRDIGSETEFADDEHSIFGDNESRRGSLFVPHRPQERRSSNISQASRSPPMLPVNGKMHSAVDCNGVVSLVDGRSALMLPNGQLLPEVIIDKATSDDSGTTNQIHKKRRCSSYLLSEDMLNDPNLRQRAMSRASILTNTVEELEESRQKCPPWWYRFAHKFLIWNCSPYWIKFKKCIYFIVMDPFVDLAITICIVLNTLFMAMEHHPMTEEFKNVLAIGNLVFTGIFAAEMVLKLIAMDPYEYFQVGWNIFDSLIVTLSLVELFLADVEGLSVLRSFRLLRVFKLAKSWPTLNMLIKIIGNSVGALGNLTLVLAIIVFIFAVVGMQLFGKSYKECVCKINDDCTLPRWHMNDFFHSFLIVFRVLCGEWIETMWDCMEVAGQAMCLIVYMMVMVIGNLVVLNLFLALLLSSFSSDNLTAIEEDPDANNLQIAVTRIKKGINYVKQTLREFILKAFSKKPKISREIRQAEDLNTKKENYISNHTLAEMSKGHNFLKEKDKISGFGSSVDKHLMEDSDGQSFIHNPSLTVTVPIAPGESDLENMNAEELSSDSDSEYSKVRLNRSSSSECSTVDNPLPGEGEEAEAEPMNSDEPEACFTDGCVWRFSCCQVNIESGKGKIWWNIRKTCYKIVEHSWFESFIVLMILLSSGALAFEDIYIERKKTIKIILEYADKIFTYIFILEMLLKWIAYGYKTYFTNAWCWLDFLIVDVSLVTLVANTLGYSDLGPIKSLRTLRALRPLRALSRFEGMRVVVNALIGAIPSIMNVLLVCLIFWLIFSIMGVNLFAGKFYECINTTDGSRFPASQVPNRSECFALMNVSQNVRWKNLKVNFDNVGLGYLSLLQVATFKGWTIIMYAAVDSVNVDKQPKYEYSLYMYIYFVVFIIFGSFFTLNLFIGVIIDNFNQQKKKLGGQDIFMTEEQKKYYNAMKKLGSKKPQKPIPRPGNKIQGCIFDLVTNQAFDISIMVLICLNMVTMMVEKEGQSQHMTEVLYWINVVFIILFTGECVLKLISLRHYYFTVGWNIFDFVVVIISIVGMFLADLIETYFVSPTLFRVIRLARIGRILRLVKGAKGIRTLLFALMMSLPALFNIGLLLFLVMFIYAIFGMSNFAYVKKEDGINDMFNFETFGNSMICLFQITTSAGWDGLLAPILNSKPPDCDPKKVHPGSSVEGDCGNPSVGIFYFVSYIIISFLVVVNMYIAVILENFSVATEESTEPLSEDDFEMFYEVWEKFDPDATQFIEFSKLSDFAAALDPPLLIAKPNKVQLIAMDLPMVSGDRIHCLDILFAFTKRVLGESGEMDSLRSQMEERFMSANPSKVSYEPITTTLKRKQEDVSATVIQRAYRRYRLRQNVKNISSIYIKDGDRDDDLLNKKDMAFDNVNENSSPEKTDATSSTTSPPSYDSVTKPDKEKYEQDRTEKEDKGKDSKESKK
row,SMILES,IC50 [µM]
1,Cc1cnc(NS(=O)(=O)c2ccc(Oc3ccc(Cl)cc3-c3ccnn3C)c(C#N)c2)cn1,10
2,Cn1nccc1NS(=O)(=O)c1ccc(Oc2ccc(Cl)cc2-c2ccnn2C)c(C#N)c1,10
3,Cn1nccc1-c1cc(Cl)ccc1Oc1ccc(S(=O)(=O)Nc2cc[nH]n2)cc1C#N,10
4,Cn1nccc1-c1cc(Cl)ccc1Oc1ccc(S(=O)(=O)Nc2cccnc2)cc1C#N,10
5,N#Cc1cc(S(=O)(=O)Nc2cnsn2)ccc1Oc1ccccc1-c1ccccc1,5.68

# Further compounds by falling IC50, results first:
row,IC50 [µM],SMILES
1,10,Cc1nonc1NS(=O)(=O)c1ccc(Oc2ccc(Cl)cc2-c2ccnn2C)c(C#N)c1
2,10,COc1nccnc1NS(=O)(=O)c1ccc(Oc2ccc(Cl)cc2-c2ccnn2C)c(C#N)c1
3,6.44,Cc1ccc(Oc2ccc(S(=O)(=O)Nc3nccs3)cc2F)c(-c2ccn(C)n2)c1
4,4.6,N#Cc1cc(S(=O)(=O)Nc2ncsn2)ccc1Oc1ccccc1-c1ccccc1
5,3.3,N#Cc1cc(S(=O)(=O)Nc2nccs2)ccc1Oc1ccc(-c2ccc(C(F)(F)F)cn2)cc1
